Test results taken from ChEMBL document CHEMBL4507272 (2021).

Experiments:
[1] = target: Mitotic checkpoint serine/threonine-protein kinase BUB1 (Homo sapiens) (UniProt O43683); conditions: Compound concentration 1000.0 nM
[2] = target: Beta-2 adrenergic receptor (Homo sapiens) (UniProt P07550); conditions: Compound concentration 10.0 uM
[3] = target: Casein kinase I isoform epsilon (Homo sapiens) (UniProt P49674); conditions: Compound concentration 1000.0 nM
[4] = target: Calcium/calmodulin-dependent protein kinase type II subunit alpha (Homo sapiens) (UniProt Q9UQM7); conditions: Compound concentration 1000.0 nM
Chain of Calcium/calmodulin-dependent protein kinase type II subunit alpha (Homo sapiens) (Q9UQM7 whole entry): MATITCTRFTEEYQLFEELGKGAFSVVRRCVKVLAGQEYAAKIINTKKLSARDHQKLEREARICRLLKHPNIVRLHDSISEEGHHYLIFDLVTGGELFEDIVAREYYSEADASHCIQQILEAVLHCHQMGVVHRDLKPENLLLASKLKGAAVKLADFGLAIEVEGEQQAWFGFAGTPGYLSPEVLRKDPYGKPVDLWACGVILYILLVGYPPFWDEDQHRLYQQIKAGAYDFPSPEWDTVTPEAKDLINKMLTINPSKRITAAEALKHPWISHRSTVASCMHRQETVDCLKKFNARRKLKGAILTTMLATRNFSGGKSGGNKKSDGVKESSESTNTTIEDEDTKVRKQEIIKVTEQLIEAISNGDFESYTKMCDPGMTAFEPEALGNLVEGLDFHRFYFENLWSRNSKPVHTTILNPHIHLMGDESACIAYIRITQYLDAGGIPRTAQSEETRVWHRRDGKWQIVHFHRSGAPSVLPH

[5] = target: Serine/threonine-protein kinase MRCK alpha (Homo sapiens) (UniProt Q5VT25); conditions: Compound concentration 1000.0 nM
[6] = target: RAC-beta serine/threonine-protein kinase (Homo sapiens) (UniProt P31751); conditions: Compound concentration 1000.0 nM
[7] = target: Tyrosine-protein kinase ABL2 (Homo sapiens) (UniProt P42684); conditions: Compound concentration 1000.0 nM
[8] = target: Serine/threonine-protein kinase MARK2 (Homo sapiens) (UniProt Q7KZI7); conditions: Compound concentration 1000.0 nM
Chain of Serine/threonine-protein kinase MARK2 (Homo sapiens) (Q7KZI7 whole entry): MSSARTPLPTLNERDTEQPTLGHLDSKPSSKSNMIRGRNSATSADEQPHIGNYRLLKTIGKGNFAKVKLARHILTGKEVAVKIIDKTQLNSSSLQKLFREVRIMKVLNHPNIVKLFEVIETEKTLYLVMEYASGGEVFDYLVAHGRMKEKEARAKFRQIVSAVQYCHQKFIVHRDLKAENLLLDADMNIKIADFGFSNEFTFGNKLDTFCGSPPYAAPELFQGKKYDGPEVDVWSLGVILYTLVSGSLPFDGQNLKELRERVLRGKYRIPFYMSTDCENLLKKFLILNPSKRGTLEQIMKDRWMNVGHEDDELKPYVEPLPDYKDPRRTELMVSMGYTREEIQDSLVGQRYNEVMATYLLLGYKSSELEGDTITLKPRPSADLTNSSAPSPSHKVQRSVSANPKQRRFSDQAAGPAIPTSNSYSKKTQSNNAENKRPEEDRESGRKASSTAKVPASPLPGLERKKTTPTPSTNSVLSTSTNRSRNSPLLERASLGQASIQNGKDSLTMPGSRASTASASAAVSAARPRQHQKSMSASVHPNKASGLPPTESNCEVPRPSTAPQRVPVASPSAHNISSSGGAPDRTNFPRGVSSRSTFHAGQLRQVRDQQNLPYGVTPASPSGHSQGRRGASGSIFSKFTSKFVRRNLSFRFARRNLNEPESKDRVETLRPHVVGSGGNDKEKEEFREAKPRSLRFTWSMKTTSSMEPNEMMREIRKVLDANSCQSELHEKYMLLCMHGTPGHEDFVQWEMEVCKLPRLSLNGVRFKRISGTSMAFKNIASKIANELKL

[9] = target: Tyrosine-protein kinase receptor TYRO3 (Homo sapiens) (UniProt Q06418); conditions: Compound concentration 1000.0 nM
[10] = target: Serine/threonine-protein kinase PAK 3 (Homo sapiens) (UniProt O75914); conditions: Compound concentration 1000.0 nM
[11] = target: Inhibitor of nuclear factor kappa-B kinase subunit alpha (Homo sapiens) (UniProt O15111); conditions: Compound concentration 1000.0 nM
[12] = target: STE20-like serine/threonine-protein kinase (Homo sapiens) (UniProt Q9H2G2); conditions: Compound concentration 1000.0 nM
[13] = target: Serine/threonine-protein kinase 24 (Homo sapiens) (UniProt Q9Y6E0); conditions: Compound concentration 1000.0 nM
[14] = target: Ephrin type-B receptor 1 (Homo sapiens) (UniProt P54762); conditions: Compound concentration 1000.0 nM
[15] = target: Serine/threonine-protein kinase 25 (Homo sapiens) (UniProt O00506); conditions: Compound concentration 1000.0 nM
[16] = test system: Receptor-type tyrosine-protein kinase FLT3 (Homo sapiens), P36888 [R834Q]; conditions: Compound concentration 1000.0 nM
[17] = target: Mitogen-activated protein kinase kinase kinase 1 (Homo sapiens) (UniProt Q13233); conditions: Compound concentration 1000.0 nM
[18] = target: Serine/threonine-protein kinase PLK2 (Homo sapiens) (UniProt Q9NYY3); conditions: Compound concentration 1000.0 nM
[19] = target: Calcium/calmodulin-dependent protein kinase kinase 1 (Homo sapiens) (UniProt Q8N5S9); conditions: Compound concentration 1000.0 nM
Histamine H3 receptor = Histamine H3 receptor (Homo sapiens, UniProt Q9Y5N1); assay: GPCRScan assay: inhibition of H3; set-up: radioligand conc. used [nm] 0.5 – 1.0, parental cells HEK Flp-In
Chain of Histamine H3 receptor (Q9Y5N1 whole entry): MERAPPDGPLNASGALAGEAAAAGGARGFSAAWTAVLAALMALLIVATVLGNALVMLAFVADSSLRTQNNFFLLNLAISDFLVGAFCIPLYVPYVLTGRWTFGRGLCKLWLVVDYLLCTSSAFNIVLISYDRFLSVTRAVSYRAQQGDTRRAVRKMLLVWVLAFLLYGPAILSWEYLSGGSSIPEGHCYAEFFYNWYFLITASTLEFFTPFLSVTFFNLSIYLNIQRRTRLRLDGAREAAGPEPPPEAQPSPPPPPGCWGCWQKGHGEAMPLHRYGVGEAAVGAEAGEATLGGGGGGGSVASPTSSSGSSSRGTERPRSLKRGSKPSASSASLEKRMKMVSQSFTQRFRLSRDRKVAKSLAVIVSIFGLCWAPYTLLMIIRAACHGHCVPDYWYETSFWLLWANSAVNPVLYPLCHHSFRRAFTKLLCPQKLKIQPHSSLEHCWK

[20] = test system: Epidermal growth factor receptor (Homo sapiens), P00533 [UNDEFINED MUTATION]; conditions: Compound concentration 1000.0 nM
[21] = target: Serine/threonine-protein kinase TNNI3K (Homo sapiens) (UniProt Q59H18); conditions: Compound concentration 1000.0 nM
[22] = target: SNF-related serine/threonine-protein kinase (Homo sapiens) (UniProt Q9NRH2); conditions: Compound concentration 1000.0 nM
[23] = target: Serine/threonine-protein kinase 32A (Homo sapiens) (UniProt Q8WU08); conditions: Compound concentration 1000.0 nM
[24] = test system: eIF-2-alpha kinase GCN2 (Homo sapiens), Q9P2K8 [S808G]; conditions: Compound concentration 1000.0 nM
[25] = target: Mitogen-activated protein kinase 7 (Homo sapiens) (UniProt Q13164); conditions: Compound concentration 1000.0 nM
[26] = target: Serine/threonine-protein kinase D2 (Homo sapiens) (UniProt Q9BZL6); conditions: Compound concentration 1000.0 nM
[27] = target: Non-receptor tyrosine-protein kinase TYK2 (Homo sapiens) (UniProt P29597); conditions: Compound concentration 1000.0 nM
[28] = target: Dual specificity mitogen-activated protein kinase kinase 5 (Homo sapiens) (UniProt Q13163); conditions: Compound concentration 1000.0 nM
[29] = test system: Receptor-type tyrosine-protein kinase FLT3 (Homo sapiens), P36888 [K663Q]; conditions: Compound concentration 1000.0 nM
[30] = target: Homeodomain-interacting protein kinase 3 (Homo sapiens) (UniProt Q9H422); conditions: Compound concentration 1000.0 nM
[31] = target: Serine/threonine-protein kinase Nek10 (Homo sapiens) (UniProt Q6ZWH5); conditions: Compound concentration 1000.0 nM
[32] = target: Histamine H4 receptor (Homo sapiens) (UniProt Q9H3N8); conditions: Compound concentration 10.0 uM
[33] = target: Discoidin domain-containing receptor 2 (Homo sapiens) (UniProt Q16832); conditions: Compound concentration 1000.0 nM
[34] = target: Sodium-dependent serotonin transporter (Homo sapiens) (UniProt P31645); conditions: Compound concentration 10.0 uM
[35] = target: Serine/threonine-protein kinase Nek4 (Homo sapiens) (UniProt P51957); conditions: Compound concentration 1000.0 nM
[36] = target: Beta-adrenergic receptor kinase 1 (Homo sapiens) (UniProt P25098); conditions: Compound concentration 1000.0 nM
[37] = target: Tyrosine-protein kinase receptor UFO (Homo sapiens) (UniProt P30530); conditions: Compound concentration 1000.0 nM
Chain of Tyrosine-protein kinase receptor UFO (Homo sapiens) (P30530 whole entry): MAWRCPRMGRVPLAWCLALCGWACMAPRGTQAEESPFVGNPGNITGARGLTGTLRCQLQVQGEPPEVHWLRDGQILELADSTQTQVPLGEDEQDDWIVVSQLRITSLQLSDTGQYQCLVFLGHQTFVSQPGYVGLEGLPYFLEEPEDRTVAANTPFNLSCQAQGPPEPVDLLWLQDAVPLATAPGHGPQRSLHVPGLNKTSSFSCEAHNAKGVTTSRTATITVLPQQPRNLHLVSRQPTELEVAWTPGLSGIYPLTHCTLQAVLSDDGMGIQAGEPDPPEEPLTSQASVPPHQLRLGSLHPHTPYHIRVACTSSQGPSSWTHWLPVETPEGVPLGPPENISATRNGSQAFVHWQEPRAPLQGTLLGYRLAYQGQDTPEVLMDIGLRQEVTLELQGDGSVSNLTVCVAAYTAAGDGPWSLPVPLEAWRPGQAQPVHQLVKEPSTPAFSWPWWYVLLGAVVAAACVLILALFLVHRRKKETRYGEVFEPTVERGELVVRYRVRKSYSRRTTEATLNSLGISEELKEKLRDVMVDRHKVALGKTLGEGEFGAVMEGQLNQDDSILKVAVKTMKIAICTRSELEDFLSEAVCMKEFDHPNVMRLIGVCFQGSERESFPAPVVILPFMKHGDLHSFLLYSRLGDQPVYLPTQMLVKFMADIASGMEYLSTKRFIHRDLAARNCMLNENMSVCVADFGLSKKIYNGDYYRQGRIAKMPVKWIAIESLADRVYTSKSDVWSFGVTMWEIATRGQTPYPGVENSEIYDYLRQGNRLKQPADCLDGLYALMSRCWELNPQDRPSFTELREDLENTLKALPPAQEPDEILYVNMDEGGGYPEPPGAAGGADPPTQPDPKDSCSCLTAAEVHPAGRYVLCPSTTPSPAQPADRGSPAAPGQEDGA

[38] = test system: Epidermal growth factor receptor (Homo sapiens), P00533 [G719C]; conditions: Compound concentration 1000.0 nM
[39] = target: Serine/threonine-protein kinase PLK3 (Homo sapiens) (UniProt Q9H4B4); conditions: Compound concentration 1000.0 nM
Chain of Serine/threonine-protein kinase PLK3 (Homo sapiens) (Q9H4B4 whole entry, looked up): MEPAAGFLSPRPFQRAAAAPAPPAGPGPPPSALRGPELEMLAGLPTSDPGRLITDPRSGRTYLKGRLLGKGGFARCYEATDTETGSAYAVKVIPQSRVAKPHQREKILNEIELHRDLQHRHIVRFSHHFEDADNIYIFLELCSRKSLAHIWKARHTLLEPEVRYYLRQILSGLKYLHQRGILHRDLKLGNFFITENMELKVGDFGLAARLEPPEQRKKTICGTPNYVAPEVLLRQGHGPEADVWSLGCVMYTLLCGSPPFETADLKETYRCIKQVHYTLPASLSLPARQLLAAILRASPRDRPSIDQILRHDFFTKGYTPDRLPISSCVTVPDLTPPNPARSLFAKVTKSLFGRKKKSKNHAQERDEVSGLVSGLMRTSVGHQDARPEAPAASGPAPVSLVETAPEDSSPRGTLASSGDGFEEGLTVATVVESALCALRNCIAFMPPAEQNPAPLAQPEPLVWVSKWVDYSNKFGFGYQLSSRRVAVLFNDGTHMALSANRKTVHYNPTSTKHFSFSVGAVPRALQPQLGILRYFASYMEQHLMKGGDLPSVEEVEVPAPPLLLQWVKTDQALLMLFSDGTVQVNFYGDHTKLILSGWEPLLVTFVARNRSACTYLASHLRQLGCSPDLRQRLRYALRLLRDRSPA

[40] = target: Dual specificity mitogen-activated protein kinase kinase 1 (Homo sapiens) (UniProt Q02750); conditions: Compound concentration 1000.0 nM
Chain of Dual specificity mitogen-activated protein kinase kinase 1 (Homo sapiens) (Q02750 whole entry): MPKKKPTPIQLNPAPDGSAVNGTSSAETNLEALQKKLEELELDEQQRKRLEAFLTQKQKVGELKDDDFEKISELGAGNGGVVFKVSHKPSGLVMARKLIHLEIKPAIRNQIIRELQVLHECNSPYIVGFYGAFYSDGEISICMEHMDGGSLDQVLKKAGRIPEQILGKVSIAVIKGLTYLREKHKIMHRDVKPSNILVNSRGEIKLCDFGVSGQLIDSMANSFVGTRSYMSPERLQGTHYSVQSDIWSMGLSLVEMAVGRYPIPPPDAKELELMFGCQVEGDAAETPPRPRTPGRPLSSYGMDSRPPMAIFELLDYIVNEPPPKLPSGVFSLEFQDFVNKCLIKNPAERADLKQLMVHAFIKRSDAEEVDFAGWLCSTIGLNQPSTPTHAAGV

[41] = target: Mu-type opioid receptor (Homo sapiens) (UniProt P35372); conditions: Compound concentration 10.0 uM
[42] = target: D(2) dopamine receptor (Homo sapiens) (UniProt P14416); conditions: Compound concentration 10.0 uM
[43] = target: Serine/threonine-protein kinase Nek5 (Homo sapiens) (UniProt Q6P3R8); conditions: Compound concentration 1000.0 nM
Chain of Serine/threonine-protein kinase Nek5 (Homo sapiens) (Q6P3R8 whole entry): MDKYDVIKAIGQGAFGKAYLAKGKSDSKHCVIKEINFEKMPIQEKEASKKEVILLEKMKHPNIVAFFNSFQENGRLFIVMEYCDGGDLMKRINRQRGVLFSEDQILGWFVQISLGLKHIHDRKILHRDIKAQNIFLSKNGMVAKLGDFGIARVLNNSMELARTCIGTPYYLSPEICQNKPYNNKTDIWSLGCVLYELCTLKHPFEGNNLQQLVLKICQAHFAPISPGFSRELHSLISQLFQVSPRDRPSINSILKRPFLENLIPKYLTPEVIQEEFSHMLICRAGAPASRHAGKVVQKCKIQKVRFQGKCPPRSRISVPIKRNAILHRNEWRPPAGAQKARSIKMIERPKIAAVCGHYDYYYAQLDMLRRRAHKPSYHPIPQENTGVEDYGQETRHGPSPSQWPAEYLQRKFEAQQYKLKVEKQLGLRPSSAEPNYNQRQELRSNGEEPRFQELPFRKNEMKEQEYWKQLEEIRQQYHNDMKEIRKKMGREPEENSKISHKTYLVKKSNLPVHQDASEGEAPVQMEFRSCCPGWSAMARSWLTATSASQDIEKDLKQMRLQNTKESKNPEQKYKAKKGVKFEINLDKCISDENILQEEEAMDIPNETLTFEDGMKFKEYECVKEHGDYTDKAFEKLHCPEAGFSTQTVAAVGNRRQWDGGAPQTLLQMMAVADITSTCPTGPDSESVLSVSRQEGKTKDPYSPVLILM

[44] = target: cGMP-dependent protein kinase 2 (Homo sapiens) (UniProt Q13237); conditions: Compound concentration 1000.0 nM

Chain of Casein kinase I isoform epsilon (Homo sapiens) (P49674 whole entry, looked up, canonical isoform): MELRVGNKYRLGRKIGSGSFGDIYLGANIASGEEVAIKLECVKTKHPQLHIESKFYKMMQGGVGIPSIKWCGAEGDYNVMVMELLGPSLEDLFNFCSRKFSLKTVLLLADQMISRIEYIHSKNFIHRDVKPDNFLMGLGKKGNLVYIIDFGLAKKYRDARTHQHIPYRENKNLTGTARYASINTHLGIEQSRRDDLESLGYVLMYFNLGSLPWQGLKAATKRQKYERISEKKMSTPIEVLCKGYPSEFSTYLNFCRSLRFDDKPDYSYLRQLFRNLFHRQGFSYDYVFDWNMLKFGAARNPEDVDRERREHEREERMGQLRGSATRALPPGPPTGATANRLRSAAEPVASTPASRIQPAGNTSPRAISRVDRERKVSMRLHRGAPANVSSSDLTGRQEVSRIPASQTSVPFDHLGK

## CC(=O)C1=C(C)N(c2cccc(C(F)(F)F)c2)C(=O)N[C@@H]1c1ccc(C#N)nc1 [BAY-678]
[1]
  residual activity: 100%
[2]
  inhibition: 24.3%
[3]
  residual activity: 100%
[4]
  residual activity: 92.5%
[5]
  residual activity: 100%
[6]
  residual activity: 100%
[7]
  residual activity: 100%
[8]
  residual activity: 100%
[9]
  residual activity: 66.9%
[10]
  residual activity: 86.3%
[11]
  residual activity: 100%
[12]
  residual activity: 98.4%
[13]
  residual activity: 95.4%
[14]
  residual activity: 100%
[15]
  residual activity: 89.9%
[16]
  residual activity: 83.6%
[17]
  residual activity: 100%
[18]
  residual activity: 97.8%
[19]
  residual activity: 100%
Histamine H3 receptor; read-out: Ki
  Ki: 3070 nM
Histamine H3 receptor; read-out: pKi (converted)
  Ki: 2820 nM
[20]
  residual activity: 80%
[21]
  residual activity: 99.7%
[22]
  residual activity: 100%
[23]
  residual activity: 100%
[24]
  residual activity: 56.9%
[25]
  residual activity: 100%
[26]
  residual activity: 98.8%
[27]
  residual activity: 91.3%
[28]
  residual activity: 100%
[29]
  residual activity: 100%
[30]
  residual activity: 100%
[31]
  residual activity: 96.4%
[32]
  inhibition: 25.9%
[33]
  residual activity: 87.6%
[34]
  inhibition: -2.61%
[35]
  residual activity: 93.9%
[36]
  residual activity: 89%
[37]
  residual activity: 100%
[38]
  residual activity: 100%
[39]
  residual activity: 84.2%
[40]
  residual activity: 93.3%
[41]
  inhibition: -5.41%
[42]
  inhibition: 0.569%
[43]
  residual activity: 80.6%
[44]
  residual activity: 100%
